Measured values reported in US10513521B2, “Compositions and methods for inhibiting BMP” (The Brigham and Women's Hospital, Inc., priority 2014, dated 2019).
Where a chain is given by its changes, count along the chain named.

Key:
[1] = target: ALK1 (Homo sapiens, UniProt P37023); assay: TR-FRET enzymatic ALK kinase assay, ALK1
Method: (§1) Briefly, the ALKs enzymatic assay was initiated by dispense 2.5 μl enzyme in 1× kinase reaction buffer. The assay plate was then added with compounds followed by incubation at room temperature for 10 minutes. Then 2.5 μl/well substrate was added.

[2] = target: T1, ALK2 (Mus musculus, UniProt P37172); assay: HTRF pSMAD1 cell-based ALK2 assay (C2C12 cells, BMP6 as agonist); conditions: cell-based assay, BMP6; read-out: Cell IC50 BMP6
T1 construct: The C2C12 cell line was selected for the measurement of ALK2 activity using BMP6 as the agonist; host or cells: C2C12
T1 sequence (P37172 21-509): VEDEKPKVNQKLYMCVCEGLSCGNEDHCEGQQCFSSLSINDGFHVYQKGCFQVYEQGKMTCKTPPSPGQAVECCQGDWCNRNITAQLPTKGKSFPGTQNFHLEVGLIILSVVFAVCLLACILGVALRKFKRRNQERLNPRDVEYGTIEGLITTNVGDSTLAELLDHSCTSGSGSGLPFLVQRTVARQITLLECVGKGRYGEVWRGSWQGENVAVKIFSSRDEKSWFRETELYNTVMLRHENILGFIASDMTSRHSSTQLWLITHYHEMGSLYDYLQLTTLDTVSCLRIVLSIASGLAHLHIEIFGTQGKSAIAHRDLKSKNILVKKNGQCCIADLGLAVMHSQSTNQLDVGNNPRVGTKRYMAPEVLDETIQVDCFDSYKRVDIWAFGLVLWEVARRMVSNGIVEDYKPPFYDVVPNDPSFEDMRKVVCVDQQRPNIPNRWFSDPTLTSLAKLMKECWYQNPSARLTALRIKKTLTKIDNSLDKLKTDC
In short: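 Phospho-SMAD1 HTRF readout, detection incubated overnight at room temperature. Before that: starved cells in 0.1% FBS for 4 h, 30 min compound pretreatment, then 30 min agonist, BMP6 on C2C12 or BMP9 on BAOEC.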

[3] = target: T2, ALK5 (Homo sapiens, UniProt P36897); assay: TR-FRET enzymatic ALK kinase assay, ALK5
T2 sequence (P36897 34-503): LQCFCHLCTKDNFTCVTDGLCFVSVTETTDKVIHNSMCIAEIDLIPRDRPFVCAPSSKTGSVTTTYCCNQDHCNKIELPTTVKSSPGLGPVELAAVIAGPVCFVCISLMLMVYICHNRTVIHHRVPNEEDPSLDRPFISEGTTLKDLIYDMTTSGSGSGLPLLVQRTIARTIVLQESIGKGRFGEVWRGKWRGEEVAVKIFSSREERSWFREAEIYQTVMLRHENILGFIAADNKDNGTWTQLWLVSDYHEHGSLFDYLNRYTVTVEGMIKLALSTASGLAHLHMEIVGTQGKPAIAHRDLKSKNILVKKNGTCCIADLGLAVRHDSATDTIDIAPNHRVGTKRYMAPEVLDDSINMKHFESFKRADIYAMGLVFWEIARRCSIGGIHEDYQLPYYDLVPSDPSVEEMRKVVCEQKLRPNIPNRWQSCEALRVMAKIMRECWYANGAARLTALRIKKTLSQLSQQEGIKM
Method: Six ALK kinase enzyme assays were developed for determination of compound activities on ALK1, ALK2, ALK3, ALK4, ALK5 and ALK6.
as §1

[4] = target: T3, ALK2 (Homo sapiens, UniProt Q04771); assay: TR-FRET enzymatic ALK kinase assay, ALK2
T3 sequence (Q04771 21-509): T1 sequence (P37172 21-509) with V1M, Q10P, I121L, E162D, S310P
Method: as §1

[5] = target: ALK6 (Homo sapiens, UniProt O00238); assay: TR-FRET enzymatic ALK kinase assay, ALK6
Method: as §1

[6] = target: T4, ALK4 (Homo sapiens, UniProt P36896); assay: TR-FRET enzymatic ALK kinase assay, ALK4
T4 sequence (P36896 24-505): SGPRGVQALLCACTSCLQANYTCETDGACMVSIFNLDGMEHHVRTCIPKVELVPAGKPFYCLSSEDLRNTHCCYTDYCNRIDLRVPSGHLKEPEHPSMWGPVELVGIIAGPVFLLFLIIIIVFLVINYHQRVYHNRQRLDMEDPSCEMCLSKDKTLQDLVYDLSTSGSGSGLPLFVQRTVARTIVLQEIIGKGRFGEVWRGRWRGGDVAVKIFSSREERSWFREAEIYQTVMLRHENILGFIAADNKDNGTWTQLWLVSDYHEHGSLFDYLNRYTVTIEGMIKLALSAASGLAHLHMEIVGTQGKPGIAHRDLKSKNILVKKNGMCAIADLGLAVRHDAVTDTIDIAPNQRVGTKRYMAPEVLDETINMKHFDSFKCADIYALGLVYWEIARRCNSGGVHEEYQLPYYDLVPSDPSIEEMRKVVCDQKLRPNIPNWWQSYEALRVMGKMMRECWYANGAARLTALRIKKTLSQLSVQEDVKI
Method: as §1

[7] = Cell-based assay, TGFb1 (Cell IC50)
[8] = target: ALK3 (Homo sapiens, UniProt P36894); assay: TR-FRET enzymatic ALK kinase assay, ALK3
Chain of ALK3 (P36894 24-532): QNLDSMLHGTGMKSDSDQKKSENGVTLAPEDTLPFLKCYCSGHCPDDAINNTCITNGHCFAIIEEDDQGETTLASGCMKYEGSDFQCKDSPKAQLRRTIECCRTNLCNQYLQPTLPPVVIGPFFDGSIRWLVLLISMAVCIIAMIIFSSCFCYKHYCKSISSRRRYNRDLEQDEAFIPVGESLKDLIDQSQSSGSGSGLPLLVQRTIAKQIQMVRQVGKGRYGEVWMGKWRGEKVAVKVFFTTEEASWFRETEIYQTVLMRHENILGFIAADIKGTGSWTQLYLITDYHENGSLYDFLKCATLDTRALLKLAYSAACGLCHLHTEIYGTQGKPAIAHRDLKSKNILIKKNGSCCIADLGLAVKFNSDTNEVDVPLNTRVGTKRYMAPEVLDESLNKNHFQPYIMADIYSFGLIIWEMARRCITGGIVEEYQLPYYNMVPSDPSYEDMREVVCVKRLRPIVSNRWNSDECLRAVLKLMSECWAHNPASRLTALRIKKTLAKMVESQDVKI
Method: as §1

Chain of ALK6 (O00238 14-502): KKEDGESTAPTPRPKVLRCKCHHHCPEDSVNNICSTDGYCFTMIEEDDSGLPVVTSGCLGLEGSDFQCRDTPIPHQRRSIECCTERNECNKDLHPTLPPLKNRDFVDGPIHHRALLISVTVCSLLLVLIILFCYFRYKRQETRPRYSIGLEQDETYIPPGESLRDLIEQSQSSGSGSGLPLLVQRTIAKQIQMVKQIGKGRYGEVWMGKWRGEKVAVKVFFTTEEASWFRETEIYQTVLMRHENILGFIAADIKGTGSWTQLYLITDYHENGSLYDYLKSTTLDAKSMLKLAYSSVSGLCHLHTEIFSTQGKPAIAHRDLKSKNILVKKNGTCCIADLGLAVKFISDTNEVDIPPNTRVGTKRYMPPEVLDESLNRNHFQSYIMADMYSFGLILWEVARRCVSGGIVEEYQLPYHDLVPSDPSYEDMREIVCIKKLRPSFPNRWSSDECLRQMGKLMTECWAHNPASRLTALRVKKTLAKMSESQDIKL
Chain of ALK1 (P37023 22-503): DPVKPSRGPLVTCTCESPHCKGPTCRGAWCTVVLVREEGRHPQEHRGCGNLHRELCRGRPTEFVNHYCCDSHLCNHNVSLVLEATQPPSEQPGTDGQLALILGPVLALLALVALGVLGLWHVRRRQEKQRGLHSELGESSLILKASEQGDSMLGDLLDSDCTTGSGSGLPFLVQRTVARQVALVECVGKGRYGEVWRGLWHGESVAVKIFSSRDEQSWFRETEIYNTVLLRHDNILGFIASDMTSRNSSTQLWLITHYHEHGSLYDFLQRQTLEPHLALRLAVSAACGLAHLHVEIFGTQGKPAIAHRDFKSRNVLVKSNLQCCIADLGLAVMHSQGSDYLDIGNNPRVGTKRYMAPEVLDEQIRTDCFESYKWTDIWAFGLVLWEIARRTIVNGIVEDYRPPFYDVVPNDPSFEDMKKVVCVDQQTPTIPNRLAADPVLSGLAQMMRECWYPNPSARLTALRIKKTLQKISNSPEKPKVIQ

Row | IC50 [1] | IC50 [2] | IC50 [3] | IC50 [4] | IC50 [5] | IC50 [6] | IC50 [7] | IC50 [8] | Structure (SMILES)
1 | 0.57 µM | 0.467 µM | > 10 µM | 0.12 µM | > 10 µM | > 10 µM | 13.5 µM | 6.3 µM | NS(=O)(=O)c1cccc(-c2cnn3cc(-c4ccc(CCN5CCCCC5)cc4)cnc23)c1 [Compound 75, 3-(6-(4-(2-(piperidin-1-yl)ethyl)phenyl)pyrazolo[1,5-a]pyrimidin-3-yl)benzenesulfonamide]
2 | 0.058 µM | 0.067 µM | > 10 µM | 0.02 µM | > 10 µM | 4.8 µM | 0.79 µM | 0.89 µM | CNS(=O)(=O)c1cccc(-c2cnn3cc(-c4ccc(N5[C@H](C)CNC[C@@H]5C)cc4)cnc23)c1 [Compound 76, 3-(6-(4-((2R,6S)-2,6-dimethylpiperazin-1-yl)phenyl)pyrazolo[1,5-a]pyrimidin-3-yl)-N-methylbenzenesulfonamide]
3 | 0.11 µM | 0.028 µM | > 10 µM | 0.031 µM | > 10 µM | 4.3 µM | 0.423 µM | 2.1 µM | CCNS(=O)(=O)c1cccc(-c2cnn3cc(-c4ccc(N5[C@H](C)CNC[C@@H]5C)cc4)cnc23)c1 [Compound 77, 3-(6-(4-((2R,6S)-2,6-dimethylpiperazin-1-yl)phenyl)pyrazolo[1,5-a]pyrimidin-3-yl)-N-ethylbenzenesulfonamide]
4 | 0.15 µM | 70 µM | > 10 µM | 0.016 µM | 0.24 µM | > 10 µM | 100 µM | 0.19 µM | Fc1ccc(-c2cnn3cc(-c4ccc(CCN5CCCCC5)cc4)cnc23)cc1-c1nnn[nH]1 [Compound 78, 3-(4-fluoro-3-(1H-tetrazol-5-yl)phenyl)-6-(4-(2-(piperidin-1-yl)ethyl)phenyl)pyrazolo[1,5-a]pyrimidine]
5 | 1.2 µM | 8.93 µM | > 10 µM | 0.19 µM | > 10 µM | > 10 µM | 10.1 µM | > 10 µM | C[C@@H]1CNC[C@H](C)N1c1ccc(-c2cnc3c(-c4cc(C#N)cc(S(N)(=O)=O)c4)cnn3c2)cc1 [Compound 79, 3-cyano-5-(6-(4-((2R,6S)-2,6-dimethylpiperazin-1-yl)phenyl)pyrazolo[1,5-a]pyrimidin-3-yl)benzenesulfonamide]
6 | 0.16 µM | 1.85 µM | > 10 µM | 0.035 µM | > 10 µM | > 10 µM | > 100 µM | > 10 µM | CN1CCC(c2ccc(-c3cnc4c(-c5ccc(S(N)(=O)=O)c6ccccc56)cnn4c3)cc2)CC1 [Compound 80, 4-(6-(4-(1-methylpiperidin-4-yl)phenyl)pyrazolo[1,5-a]pyrimidin-3-yl)naphthalene-1-sulfonamide]
7 | 0.88 µM | 27.4 µM | > 10 µM | 0.17 µM | > 10 µM | > 10 µM | > 100 µM | > 10 µM | C[C@@H]1CNC[C@H](C)N1c1ccc(-c2cnc3c(-c4cccc(C(F)(F)F)c4)cnn3c2)cc1 [Compound 81, 6-(4-((2R,6S)-2,6-dimethylpiperazin-1-yl)phenyl)-3-(3-(trifluoromethyl)phenyl)pyrazolo[1,5-a]pyrimidine]
8 | 0.86 µM | 2.08 µM | > 10 µM | 0.12 µM | > 10 µM | > 10 µM | 10 µM | > 10 µM | C[C@@H]1CNC[C@H](C)N1c1ccc(-c2cnc3c(-c4ccc(F)c(C#N)c4)cnn3c2)cc1 [Compound 84, 5-(6-(4-((2R,6S)-2,6-dimethylpiperazin-1-yl)phenyl)pyrazolo[1,5-a]pyrimidin-3-yl)-2-fluorobenzonitrile]
9 | 0.12 µM | 0.11 µM | > 10 µM | 0.039 µM | > 10 µM | 7.3 µM | 5.57 µM | 1.7 µM | C[C@@H]1CNC[C@H](C)N1c1ccc(-c2cnc3c(-c4ccc(N)c(S(N)(=O)=O)c4)cnn3c2)cc1 [Compound 85, 2-amino-5-(6-(4-((2R,6S)-2,6-dimethylpiperazin-1-yl)phenyl)pyrazolo[1,5-a]pyrimidin-3-yl)benzenesulfonamide]
10 | 0.17 µM | 0.419 µM | > 10 µM | 0.037 µM | > 10 µM | > 10 µM | 57 µM | 1.5 µM | CS(=O)(=O)c1cccc(-c2cnn3cc(-c4ccc(CCN5CCCCC5)cc4)cnc23)c1 [Compound 86, 3-(3-(methylsulfonyl)phenyl)-6-(4-(2-(piperidin-1-yl)ethyl)phenyl)pyrazolo[1,5-a]pyrimidine]
11 | 0.084 µM | 0.479 µM | > 10 µM | 0.023 µM | > 10 µM | > 10 µM | 30 µM | 1.8 µM | NS(=O)(=O)c1ccc(-c2cnn3cc(-c4ccc(OC5(CN6CCCCC6)COC5)cc4)cnc23)c2ccccc12 [Compound 87, 4-(6-(4-((3-(piperidin-1-ylmethyl)oxetan-3-yl)oxy)phenyl)pyrazolo[1,5-a]pyrimidin-3-yl)naphthalene-1-sulfonamide]
12 | 1.3 µM | 5.92 µM | > 10 µM | 0.42 µM | > 10 µM | > 10 µM | 0.058 µM | > 10 µM | c1ccc(-c2cnn3cc(-c4ccc(CCN5CCCCC5)cc4)cnc23)cc1 [Compound 88, 3-phenyl-6-(4-(2-(piperidin-1-yl)ethyl)phenyl)pyrazolo[1,5-a]pyrimidine]
13 | 0.068 µM | 0.397 µM | > 10 µM | 0.014 µM | > 10 µM | 0.87 µM | 15 µM | > 10 µM | c1cc(-c2cc[nH]n2)cc(-c2cnn3cc(-c4ccc(CCN5CCCCC5)cc4)cnc23)c1 [Compound 90, 3-(3-(1H-pyrazol-3-yl)phenyl)-6-(4-(2-(piperidin-1-yl)ethyl)phenyl)pyrazolo[1,5-a]pyrimidine]
